Measured values reported in the NIST ThermoML archive (doi:10.1021/acs.jced.6b00350).

Conditions: Liquid, Hot wire method

FC(F)CC(F)(F)F [1,1,1,3,3-pentafluoropropane]
Conditions	thermal conductivity [W/m/K]
183.14 K, 5877 kPa	0.1234
183.14 K, 70492 kPa	0.1338
183.14 K, 70493 kPa	0.134
183.15 K, 12341 kPa	0.1246
183.15 K, 18865 kPa	0.1257
183.15 K, 25402 kPa	0.1266
183.16 K, 12323 kPa	0.1246
183.16 K, 18832 kPa	0.1258
183.16 K, 25441 kPa	0.1268
183.16 K, 32517 kPa	0.1281
183.17 K, 32553 kPa	0.1282
183.18 K, 63248 kPa	0.1329
183.19 K, 63254 kPa	0.133
183.25 K, 54977 kPa	0.1312
183.25 K, 54980 kPa	0.1317
183.29 K, 47629 kPa	0.13
183.3 K, 47628 kPa	0.1305
183.34 K, 39964 kPa	0.1291
183.34 K, 39965 kPa	0.1291
183.5 K, 279 kPa	0.1222
183.5 K, 290 kPa	0.1225
183.5 K, 5883 kPa	0.1234
183.5 K, 12421 kPa	0.1245
183.5 K, 70475 kPa	0.1338
183.5 K, 70484 kPa	0.1336
183.51 K, 5882 kPa	0.1233
183.51 K, 12360 kPa	0.1246
183.51 K, 18836 kPa	0.1258
183.51 K, 18859 kPa	0.1258
183.51 K, 25404 kPa	0.1269
183.51 K, 25455 kPa	0.1269
183.51 K, 32519 kPa	0.1282
183.51 K, 32578 kPa	0.1281
183.54 K, 63251 kPa	0.133
183.55 K, 63252 kPa	0.1329
183.62 K, 54975 kPa	0.1314
183.66 K, 47626 kPa	0.1304
183.67 K, 47632 kPa	0.1303
183.71 K, 39948 kPa	0.129
183.71 K, 39959 kPa	0.1291
183.88 K, 5875 kPa	0.1233
183.88 K, 18828 kPa	0.1257
183.88 K, 18858 kPa	0.1257
183.88 K, 25416 kPa	0.1267
183.88 K, 32497 kPa	0.1281
183.88 K, 70464 kPa	0.1338
183.89 K, 5878 kPa	0.1233
183.89 K, 12374 kPa	0.1246
183.89 K, 12395 kPa	0.1244
183.89 K, 25431 kPa	0.1268
183.89 K, 32541 kPa	0.1281
183.89 K, 70475 kPa	0.1341
183.9 K, 282 kPa	0.1223
183.9 K, 287 kPa	0.1222
183.93 K, 63243 kPa	0.1325
183.93 K, 63247 kPa	0.1328
184.01 K, 54967 kPa	0.1313
184.01 K, 54970 kPa	0.1314
184.06 K, 47633 kPa	0.1303
184.06 K, 47634 kPa	0.13
184.1 K, 39951 kPa	0.129
184.1 K, 39957 kPa	0.129
201.76 K, 4752 kPa	0.1207
201.76 K, 4760 kPa	0.1207
201.78 K, 10055 kPa	0.1218
201.78 K, 10078 kPa	0.1219
201.81 K, 15810 kPa	0.1231
201.85 K, 253 kPa	0.1197
201.86 K, 245 kPa	0.1197
